In ChEMBL document CHEMBL1154623, “S-glycosyl primary sulfonamides--a new structural class for selective inhibition of cancer-associated carbonic anhydrases” (J Med Chem, 2009) one finds Ki, Papp and degraded data, which are given here for 11 compounds.

In one data set the target is Carbonic anhydrase 9 (Homo sapiens, UniProt Q16790).
Conditions: not given
As usually defined, the Ki is the equilibrium dissociation constant of an inhibitor or competing ligand from its target. A low value points to tighter binding. `NS(=O)(=O)[C@@H]1O[C@H](CO)[C@@H](O)[C@H](O)[C@H]1O` returned a Ki of 4.05 µM. The compound `COC(=O)[C@H]1O[C@@H](S(N)(=O)=O)[C@H](OC(C)=O)[C@@H](OC(C)=O)[C@@H]1OC(C)=O` gave a Ki of 4.15 µM. The compound `NS(=O)(=O)[C@@H]1O[C@H](CO)[C@H](O)[C@H](O)[C@H]1O` gave a Ki of 4.19 µM. Still for that read-out and setting: then `CC(=O)OC[C@H]1O[C@@H](S(N)(=O)=O)[C@H](OC(C)=O)[C@@H](OC(C)=O)[C@H]1OC(C)=O`, with 4.09 µM.

The compound `CC(=O)OC[C@H]1O[C@@H](O[C@H]2[C@H](OC(C)=O)[C@@H](OC(C)=O)[C@H](S(N)(=O)=O)O[C@@H]2COC(C)=O)[C@H](OC(C)=O)[C@@H](OC(C)=O)[C@H]1OC(C)=O` showed a Ki of 4.03 µM. On the same count and under the same terms, then `NS(=O)(=O)[C@@H]1O[C@H](CO)[C@@H](O[C@@H]2O[C@H](CO)[C@H](O)[C@H](O)[C@H]2O)[C@H](O)[C@H]1O`, with 4.19 µM; and `CC(=O)OC[C@H]1O[C@@H](S(N)(=O)=O)[C@H](OC(C)=O)[C@@H](OC(C)=O)[C@@H]1OC(C)=O`, with 3.91 µM. On the same count and under the same terms, then `CC(=O)OC[C@H]1O[C@@H](S(N)(=O)=O)[C@H](OC(C)=O)[C@@H](OC(C)=O)[C@@H]1O[C@H]1O[C@H](COC(C)=O)[C@@H](OC(C)=O)[C@H](OC(C)=O)[C@H]1OC(C)=O`, with 4.08 µM.

`NS(=O)(=O)[C@@H]1O[C@H](CO)[C@@H](O[C@H]2O[C@H](CO)[C@@H](O)[C@H](O)[C@H]2O)[C@H](O)[C@H]1O` registered a Ki of 4.22 µM.

Test system in a further data set: not listed separately
The data set can be described thus: Apparent effective permeability by PAMPA method. It counts as ADME. The settings on record: read-out: permeability.
Turning to `NS(=O)(=O)[C@@H]1O[C@H](CO)[C@@H](O)[C@H](O)[C@H]1O`, the Papp is below 0.4 ×10⁻⁶ cm/s. Still for that read-out and setting: then `CC(=O)Nc1nnc(S(N)(=O)=O)s1` [ACETAZOLAMIDE], with below 0.15 ×10⁻⁶ cm/s; and `CC(=O)OC[C@H]1O[C@@H](S(N)(=O)=O)[C@H](OC(C)=O)[C@@H](OC(C)=O)[C@@H]1OC(C)=O`, with below 0.1 ×10⁻⁶ cm/s. Same read-out and setting: then `CC(=O)OC[C@H]1O[C@@H](S(N)(=O)=O)[C@H](OC(C)=O)[C@@H](OC(C)=O)[C@@H]1O[C@H]1O[C@H](COC(C)=O)[C@@H](OC(C)=O)[C@H](OC(C)=O)[C@H]1OC(C)=O`, with below 0.02 ×10⁻⁶ cm/s; and `CC1(C)O[C@@H]2[C@@H](CO[C@@]3(COS(N)(=O)=O)OC(C)(C)O[C@@H]23)O1` [TOPIRAMATE], with 0.54 ×10⁻⁶ cm/s; and `NS(=O)(=O)[C@@H]1O[C@H](CO)[C@@H](O[C@H]2O[C@H](CO)[C@@H](O)[C@H](O)[C@H]2O)[C@H](O)[C@H]1O`, with below 0.5 ×10⁻⁶ cm/s.

Test system in another data set: not listed separately
Put plainly: Chemical stability during PAMPA assessed as compound degradation. The data set is classed as physicochemical. The settings on record: read-out: Activity.
Consider `CC(=O)OC[C@H]1O[C@@H](S(N)(=O)=O)[C@H](OC(C)=O)[C@@H](OC(C)=O)[C@@H]1OC(C)=O`, for which the degraded turned out to be 35%.
